Results on four compounds are retold here after paper PMC8709388, “In Search of Small Molecules That Selectively Inhibit MBOAT4” (Molecules, 2021).

Like-named read-outs stand apart in the source and are kept apart here.

The test system of one data set is GOAT. The following applies: read-out: lit. IC50, cited from earlier work.
Another data set deals with ghrelin production. Details: method as in earlier work. The following applies: cited from earlier work.
In data set [1] the test system is acyl ghrelin secretion from INS-1 cells (INS/GOAT/GHRL cell line). As to the kind of experiment: INS-1 cellular assay: secreted acyl-ghrelin from INS/GOAT/GHRL cell line measured with ELISA. Format: cell-based, mouse. The following applies: for IC50: INS1, acyl-ghrelin secretion, read-out: in-house INS-1 IC50; for activity in cell culture (in words): acyl ghrelin secretion. The source says:
Generation of Recombinant Retrovirus for mGOAT Expression. The mouse GOAT cDNA with C-terminal HA tag was amplified from pcDNA3.1-mouseGOAT-HA vector (gift from Brown and Goldstein lab) using the following primers: mGOAT_attb1 (forward primer) 5′-[…]—3′(attb1 recombination site is in italics, 5′ of mGOAT coding sequence is in bold, and Kozak coding sequence is underlined) and mGOAT_attb2 (reverse primer) 5′-[…] -3′ (attb2 recombination site is in italics, 3′ of mGAOT-HA coding sequence is in bold, and stop codon is underlined). The PCR product was cloned into donor vector pDONR221 (ThermoFisher) with BP clonase according to manufacturer’s instructions. Positive clones were verified by DNA sequencing with M13F and M13R primers. The resulting entry plasmid pDONR221-mGOAT-HA was used to transfer mGOAT-HA cDNA to destination vector pBabe-puro (Addgene cat# 51070 [35]) using LR clonase according to manufacturer’s instructions. Positive clones were verified by DNA sequencing with pBABE-5 and pBABE-3 primers. The resulting plasmid, pBabe-puro-mGOAT-HA, was used to generate retrovirus. The retrovirus was packed in 293T PhoE (Phoenix-ECO AT0CC® CRL-3214™) cells and used to infect INS-1 cells. The stable INS/GOAT cells were selecting on 1 μg/mL puromycin and GOAT expression was confirmed with immunoblot of membrane fraction isolated from antibiotic resistant culture using anti-HA antibody.
Generation of Lentivirus for Expression of Ghrelin. The cDNA for mouse preproghrelin was subcloned from pcDNA3.1-preproghrelin (gift from Brown and Goldstein lab) into pULTRA vector (Addgene cat# 24129 [36]) with XbaI and BamHI restriction enzymes. Using of these restriction sites for cloning will result in the creation of bi-cistronic expression of ghrelin along with EGFP to facilitate identification of positive cells by fluorescence. The above restriction sites were engineered via PCR reaction using the following primers: ghrl_pultra_forw 5′-[…]-3′ (5′ of preproghrelin coding sequence is in bold; XbaI site is in italics) and ghrl_pultra_rev 5′-[…] -3′ (3′ of preproghrelin coding sequence is in bold, stop codon is underlined, and BamHI site is italics). The recombinant lentivirus encoding preproghrelin cDNA was packed in Lenti-X 293T cells (Takara cat# 632180) by co-transfection of pUltra-EGFP-mouse-preproghrelin, with packaging encoding plasmid pCMV ΔR8.2 (Addgene cat# 12263) and envelope encoding plasmid pCMV-VSV g (Addgene cat# 8454). The INS/GOAT cells were infected with recombinant lentivirus to generate INS/GOAT/GHRL cell line. After few passages, the population of cells with puromycin resistance and ~90% fluorescence was saved for cell-based assay.
Cellular assay. INS/GOAT/GHRL cell line was routinely cultured in RPMI medium supplemented with 10% FBS, 1% Pen/Strep, 10 mM HEPES pH 7.2 and 50 μM 2-mercaptoethanol. Day 0: One 10 cm dish at full confluency was used to seed one 96-well plate. Day 1: Growth media was removed and cells were washed with PBS prior to adding fresh growth media as above but without 2-mercaptoethanol. The serial dilutions of tested compound at 50× concentration were prepared in vehicle containing growth media without 2-mercaptoethnol supplemented with 6% DMSO and were added to cells in duplicates. Day 2: 10 μL of growth media were removed from each well and amount of secreted acyl-ghrelin was measured with ELISA (Cayman cat# 10006307).
For orientation: An ELISA detects its analyte on a solid surface through an enzyme-linked reagent.

A word on the IC50: it is the concentration needed to halve the response being measured. With `Cc1nc(Cl)nc(N)c1CCC1CCN(C(=O)[C@H](C)NC(=O)c2ccnn2C)CC1` [compound 5], the half-maximal inhibitory concentration (IC50) with GOAT (Eli Lilly compound) is 57 nM; in data set [1], 670 nM. Also, the adverse side effects result in the data set with ghrelin production (at doses that inhibited ghrelin production) is “did not cause observable adverse side effects”. Moreover, the “ghrelin production in vivo” value in the data set with ghrelin production is reported as “inhibited ghrelin production in vivo”. The oral bioavailability result in the data set with ghrelin production was “orally bioavailable”.
With `CNC(=O)c1cccc(Cc2c(C)nc3nonc3c2N)n1` [compound 6, reference compound], the results for the IC50 (with GOAT (Boehringer Ingelheim compound); in data set [1]) were 0.24 nM and 540 nM, respectively.
For `CCCCOCC(=O)N1CCC(CCc2c(C)nc3nonc3c2N)CC1` [compound 10, 1-(4-(2-(7-amino-5-methyl-[1,2,5]oxadiazolo[3,4-b]pyridin-6-yl)ethyl)piperidin-1-yl)-2-butoxyethan-1-one], in data set [1], the IC50 was greater than 6600 nM and the “activity in cell culture (in words)” value is on record as “much less active in cells”.
As for `Cc1nc2nonc2c(N)c1CCC1CCN(C(=O)[C@H](C)NC(=O)c2ccnn2C)CC1` [compound 11, (S)-N-(1-(4-(2-(7-amino-5-methyl-[1,2,5]oxadiazolo[3,4-b]pyridin-6-yl)ethyl)pip-eridin-1-yl)-1-oxopropan-2-yl)-1-methyl-1H-pyrazole-5-carboxamide], in data set [1], the “potency of blocking ghrelin secretion from INS-1 cells relative to 5” value is 4 fold, the half-maximal inhibitory concentration (IC50) amounted to 160 nM and the “activity in cell culture (in words)” value was “most potent compound we have tested in our cellular assay”.
